Test results published in ChEMBL document CHEMBL1140777, “3,4-Diamino-2,5-thiadiazole-1-oxides as potent CXCR2/CXCR1 antagonists” (Bioorg Med Chem Lett, 2008).

Legend:
[1] = biological target: T1, Interleukin-8 receptors, CXCR1/CXCR2 (Homo sapiens, UniProt P25025+P25024); assay: Antagonist activity at CXCR1/CXCR2 in human PMN cells assessed as inhibition of GROalpha-mediated myeloperoxidase release; assay type: functional, cell-based
T1 sequence (P25025 whole entry): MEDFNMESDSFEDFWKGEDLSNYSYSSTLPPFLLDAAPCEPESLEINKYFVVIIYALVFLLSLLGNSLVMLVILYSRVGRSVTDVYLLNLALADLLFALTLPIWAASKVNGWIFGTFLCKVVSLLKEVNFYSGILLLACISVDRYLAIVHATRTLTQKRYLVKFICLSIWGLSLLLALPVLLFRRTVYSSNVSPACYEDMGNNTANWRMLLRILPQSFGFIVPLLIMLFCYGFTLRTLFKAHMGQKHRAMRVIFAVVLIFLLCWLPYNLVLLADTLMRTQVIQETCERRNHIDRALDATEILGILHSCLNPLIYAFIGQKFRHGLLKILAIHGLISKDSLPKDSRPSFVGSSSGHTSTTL
T1 sequence (P25024 whole entry): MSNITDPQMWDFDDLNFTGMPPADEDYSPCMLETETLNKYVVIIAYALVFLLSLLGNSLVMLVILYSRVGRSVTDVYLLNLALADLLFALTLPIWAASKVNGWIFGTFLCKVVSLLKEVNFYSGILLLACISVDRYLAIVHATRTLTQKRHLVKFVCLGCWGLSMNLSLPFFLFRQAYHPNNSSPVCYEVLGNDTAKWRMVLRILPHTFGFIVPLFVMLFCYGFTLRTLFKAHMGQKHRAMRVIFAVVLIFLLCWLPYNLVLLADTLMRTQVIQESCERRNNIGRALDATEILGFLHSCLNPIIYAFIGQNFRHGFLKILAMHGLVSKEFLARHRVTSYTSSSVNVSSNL

[2] = biological target: T2, C-X-C chemokine receptor type 1 (Homo sapiens, UniProt P25024); assay: Binding affinity to CXCR1
T2 sequence (P25024 whole entry): T1 sequence (P25024 whole entry)

[3] = biological target: T3, C-X-C chemokine receptor type 2 (Homo sapiens, UniProt P25025); assay: Binding affinity to CXCR2
T3 sequence (P25025 whole entry): T1 sequence (P25025 whole entry)

[4] = biological target: Interleukin-8 receptors, CXCR1/CXCR2 (Homo sapiens) (UniProt P25025+P25024); assay: Antagonist activity at CXCR1/CXCR2 in human PMN cells assessed as inhibition of GROalpha-mediated myeloperoxidase release at 1 uM; assay type: functional, cell-based; design: scale not given: the % may be the effect or the level left
[5] = biological target: T1, Interleukin-8 receptors, CXCR1/CXCR2; assay: Antagonist activity at CXCR1/CXCR2 in human PMN cells assessed as inhibition of IL8-mediated myeloperoxidase release; assay type: functional, cell-based
[6] = Drug level in po dosed rat blood; assay type: ADME, organism-based; conditions: read-out: Activity

For CC[C@@H](Nc1n[s+]([O-])nc1Nc1cccc(C(=O)N(C)C)c1O)c1ccccc1 (stereo not given in full), the IC50 [1] was 0.331 µM, the Ki [2] was 1.22 µM and the Ki [3] was 0.005 µM.
CN(C)C(=O)c1cccc(NC2=NS(=O)(=O)N=C2N[C@@H](c2ccc3c(c2)OCCO3)C(C)(C)C)c1O gave an Activity [4] of -12%.
With CC[C@@H](Nc1n[s+]([O-])nc1Nc1cccc(C(=O)N(C)C)c1O)c1ccc(C)o1 (stereo not given in full) the IC50 [1] was 0.133 µM, the IC50 [5] was 0.539 µM and the Ki [2] was 0.234 µM. The Ki [3] was 0.003 µM.
CC[C@@H](Nc1n[s+]([O-])nc1Nc1cccc(C(=O)N(C)C)c1O)c1cc(C(C)C)co1 (stereo not given in full) showed an IC50 [1] of 0.008 µM, an IC50 [5] of 0.015 µM and a Ki [2] of 0.061 µM. For the same compound, the Ki [3] was 0.009 µM.
Work on CN(C)C(=O)c1cccc(Nc2n[s+]([O-])nc2N[C@@H](c2ccccc2)C(C)(C)C)c1O (stereo not given in full) yielded an IC50 [1] of 0.028 µM, an IC50 [5] of 0.142 µM and a Ki [2] of 0.13 µM. The Ki [3] was 0.004 µM.
With Cc1ccc([C@H](Nc2n[s+]([O-])nc2Nc2cccc(C(=O)N(C)C)c2O)C(C)(C)C)o1 (stereo not given in full) the IC50 [1] was 0.027 µM, the IC50 [5] was 0.08 µM and the Ki [2] was 0.038 µM. The Ki [3] was 0.005 µM.
With CN(C)C(=O)c1cccc(Nc2n[s+]([O-])nc2NCc2ccc3c(c2)OCO3)c1O (stereo not given) the Ki [2] was 10 µM and the Ki [3] was 0.015 µM.
In the case of Cc1ccc([C@H](NC2=NS(=O)(=O)N=C2Nc2cccc(C(=O)N(C)C)c2O)C2(C)CC2)o1, the Ki [2] is reported as 1.1 µM, the Activity [4] is reported as -11% and the Ki [3] is reported as 0.184 µM.
With CC(C)[C@@H](NC1=NS(=O)(=O)N=C1Nc1cccc(C(=O)N(C)C)c1O)c1cccc(F)c1 the Ki [2] was 0.652 µM and the Ki [3] was 0.011 µM.
With CN(C)C(=O)c1cccc(NC2=NS(=O)(=O)N=C2N[C@@H](c2ccc(Cl)o2)C(C)(C)C)c1O the Ki [2] was 0.129 µM and the Ki [3] was 0.009 µM.
With CN(C)C(=O)c1cccc(NC2=NS(=O)(=O)N=C2N[C@@H](c2ccc3c(c2)OCO3)C(C)(C)C)c1O the Ki [2] was 0.046 µM and the Ki [3] was 0.0047 µM.
CN(C)C(=O)c1cccc(Nc2n[s+]([O-])nc2N[C@@H](c2ccco2)C(C)(C)C)c1O (stereo not given in full) gave an IC50 [1] of 0.008 µM, an IC50 [5] of 0.02 µM and a Ki [2] of 0.021 µM. The Ki [3] was 0.0023 µM.
With CN(C)C(=O)c1cccc(Nc2n[s+]([O-])nc2N[C@@H](c2ccco2)C2(C)CC2)c1O (stereo not given in full) the IC50 [1] was 0.132 µM, the IC50 [5] was 0.4 µM and the Ki [2] was 0.375 µM. The Ki [3] was 0.012 µM.
With CN(C)C(=O)c1cccc(NC2=NS(=O)(=O)N=C2N[C@@H](c2ccco2)C(C)(C)C)c1O the Ki [2] was 0.061 µM, the Activity [4] was 3% and the Ki [3] was 0.011 µM.
Work on CC[C@@H](NC1=NS(=O)(=O)N=C1Nc1cccc(C(=O)N(C)C)c1O)c1ccccc1 yielded an IC50 [5] of 8.99 µM, an AUC [6] of 2.3 µM·h and a Ki [2] of 8.99 µM. For the same compound, the Activity [4] was -39%.
CCC(C)(C)[C@@H](NC1=NS(=O)(=O)N=C1Nc1cccc(C(=O)N(C)C)c1O)c1ccco1 showed a Ki [2] of 0.188 µM, an Activity [4] of -19% and a Ki [3] of 0.016 µM.
For CC[C@@H](NC1=NS(=O)(=O)NC1=Nc1cccc(C(=O)N(C)C)c1O)c1ccc2c(c1)OCCN2C, the Ki [2] was 2.8 µM and the Ki [3] was 0.009 µM.
Compound CC[C@@H](NC1=NS(=O)(=O)N=C1Nc1cccc(C(=O)N(C)C)c1O)c1ccc(C)o1 has a Ki [2] of 5.95 µM.
With C[C@H](Nc1n[s+]([O-])nc1Nc1cccc(C(=O)N(C)C)c1O)C(C)(C)C (stereo not given in full) the IC50 [1] was 0.038 µM, the IC50 [5] was 0.684 µM and the AUC [6] was 5.28 µM·h. For the same compound, the Ki [2] was 0.484 µM and the Ki [3] was 0.058 µM.
In the case of Cc1cc([C@H](Nc2n[s+]([O-])nc2Nc2cccc(C(=O)N(C)C)c2O)C(C)C)oc1C (stereo not given in full), the IC50 [1] is reported as 0.013 µM, the IC50 [5] is reported as 0.054 µM and the AUC [6] is reported as 119 µM·h.
Work on CC(C)[C@@H](Nc1n[s+]([O-])nc1Nc1cccc(C(=O)N(C)C)c1O)c1cccc(F)c1 (stereo not given in full) yielded a Ki [2] of 4.01 µM and a Ki [3] of 0.008 µM.
Compound CN(C)C(=O)c1cccc(N=C2NS(=O)(=O)N=C2N[C@@H](c2ccc3c(c2)OCCO3)C(C)(C)C)c1O has an AUC [6] of 1.87 µM·h, a Ki [2] of 2 µM and a Ki [3] of 0.024 µM.
